Laboratory results taken from PubChem BioAssay (NCI).
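Results reflect a 48-hour exposure of cells in 96-well plates to compound at five concentrations. Here, GI50 denotes the concentration required for 50% inhibition of growth. TGI: total growth inhibition.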

Columns and labels:
Experiment in all cases: inhibition of tumour cell growth, NCI panel, 48 h
ACHN renal = tested on: ACHN renal
CAKI-1 renal = tested on: CAKI-1 renal
DU-145 prostate = tested on: DU-145 prostate
LOX IMVI melanoma = tested on: LOX IMVI melanoma
NCI-H23 lung = tested on: NCI-H23 lung
OVCAR-3 ovarian = tested on: OVCAR-3 ovarian
OVCAR-5 ovarian = tested on: OVCAR-5 ovarian
SNB-75 CNS = tested on: SNB-75 CNS
SF-295 CNS = tested on: SF-295 CNS

SMILES	GI50 (ACHN renal)	TGI (ACHN renal)	GI50 (CAKI-1 renal)	TGI (CAKI-1 renal)	GI50 (DU-145 prostate)	TGI (DU-145 prostate)	GI50 (LOX IMVI melanoma)	TGI (LOX IMVI melanoma)	GI50 (NCI-H23 lung)	TGI (NCI-H23 lung)	GI50 (OVCAR-3 ovarian)	TGI (OVCAR-3 ovarian)	GI50 (OVCAR-5 ovarian)	TGI (OVCAR-5 ovarian)	GI50 (SNB-75 CNS)	TGI (SNB-75 CNS)	TGI (SF-295 CNS)
Cc1c(C)c2c(c(C)c1OC(=O)CCC(=O)[O-])CCC(C)(CCCCCCCCCCC[P+](c1ccccc1)(c1ccccc1)c1ccccc1)O2 (configuration not stated)	264 nM	0.909 µM	451 nM	1.34 µM	218 nM	0.899 µM	194 nM	0.747 µM	159 nM	0.671 µM	145 nM	0.542 µM	220 nM	0.836 µM	123 nM	0.49 µM	
CC(C)C[S+]1C2=C([O-])CC(C)(C)CC2=Nc2ccccc21 (configuration not stated)		> 100 µM		> 100 µM		> 100 µM		> 100 µM		> 100 µM		> 100 µM		> 100 µM		> 100 µM	> 100 µM
CC(=O)O[C@@H]1[C@H](OC2CCCCC2(c2ccccc2)c2ccccc2)O[N+]([O-])=CC12CCCCC2 (some centres not stated)		31.4 µM		27.5 µM		32 µM		46.2 µM		22.2 µM		28.1 µM		29.4 µM		29.4 µM	29.2 µM
C/C=C/CC(C(=O)OCC)(N(C)C(=O)OC(C)(C)C)S(=O)(=O)c1ccc(C)cc1 (configuration not stated)		> 100 µM		> 100 µM		> 100 µM		> 100 µM		> 100 µM		> 100 µM		> 100 µM			> 100 µM
CN(C)c1ccc(/C=C/C(=O)c2cc(C(C)(C)C)c(O)c(C(C)(C)C)c2)cc1		> 100 µM		> 58.5 µM		6.8 µM		> 100 µM		> 100 µM				> 30.2 µM		0.856 µM	5.33 µM
CON(C)c1nc(N)c(C#N)c(C#N)c1C#N		> 10 µM		> 10 µM		> 10 µM		> 10 µM		> 10 µM		> 10 µM		> 10 µM		> 10 µM	> 10 µM
Cc1ccc(S(=O)(=O)NC(=O)Nc2c(S(N)(=O)=O)cc(S(N)(=O)=O)c(Cl)c2Cl)cc1		> 100 µM		> 100 µM				> 100 µM		> 100 µM		> 100 µM		> 100 µM			> 100 µM
CC(=O)Nc1ccc(NC(=O)CC(=O)Nc2ccc(NC(C)=O)cc2)cc1		> 100 µM		> 100 µM		> 100 µM		> 100 µM		> 100 µM		> 100 µM					> 100 µM
c1ccc(CN2CCC(=NN3CCCCC3)CC2)cc1		> 100 µM		> 100 µM		> 100 µM		> 100 µM		> 100 µM		> 100 µM		> 100 µM		> 100 µM	> 100 µM
CC(NC(=O)Cc1ccc(OP(=O)(OCc2ccc([N+](=O)[O-])o2)N(C)CCCCCl)cc1)c1ccc(OCC2CCCCC2)c(C(N)=O)c1 (configuration not stated)		37.1 µM		20.7 µM		14.4 µM		3.28 µM		5.12 µM		3.75 µM		8.78 µM			4.84 µM
CN1C(=O)c2ccccc2C(O)(c2ccccc2)C1(O)c1ccccc1 (configuration not stated)		> 100 µM		> 100 µM				> 100 µM		> 100 µM		> 100 µM		> 100 µM		> 100 µM	> 100 µM
O=Cc1c2c(cc3c1CC1(C3)Cc3cc4c(c(C=O)c3C1)CCCC4)CCCC2		> 31.6 µM		> 100 µM		> 100 µM		> 31.6 µM		> 31.6 µM		> 31.6 µM		> 31.6 µM		> 100 µM	> 31.6 µM
COc1ccc(C=Nc2ccc(-c3nc4ccccc4s3)cc2)cc1OC		70.5 µM		> 100 µM		> 100 µM		45.5 µM		90.6 µM		51.9 µM		> 100 µM		75.7 µM	55.5 µM
CC(=O)N1C(C(=O)NN2CCOCC2)CSC1c1ccccc1 (configuration not stated)		> 100 µM		> 100 µM		> 100 µM		> 100 µM		> 100 µM		> 100 µM		> 100 µM		> 100 µM	> 100 µM
CCCNC1=C2C[C@@H](C)C[C@@H](OC)[C@@H](OC(=O)CCCN)[C@H](C)/C=C(\C)[C@@H](OC(N)=O)[C@H](OC)/C=C\C=C(/C)C(=O)NC(=CC1=O)C2=O		37.6 µM		38.5 µM		26.3 µM		> 48.3 µM		29.4 µM		24 µM		30.5 µM			36.8 µM
COc1ccccc1N1CCN(CCCCNC(=O)c2ccc([N+](=O)[O-])o2)CC1		25.2 µM		40.5 µM		16.4 µM		16.3 µM		15.9 µM		17.8 µM		33.1 µM			25.7 µM
COc1ccccc1-n1cnc2c1NC(C)(C)N=C2C(N)=O		> 100 µM		> 100 µM		> 100 µM		> 100 µM		> 100 µM		> 100 µM		> 100 µM		> 100 µM	> 100 µM

SMILES	GI50 (ACHN renal)	TGI (ACHN renal)	GI50 (CAKI-1 renal)	TGI (CAKI-1 renal)	GI50 (DU-145 prostate)	TGI (DU-145 prostate)	GI50 (LOX IMVI melanoma)	TGI (LOX IMVI melanoma)	GI50 (NCI-H23 lung)	TGI (NCI-H23 lung)	GI50 (OVCAR-3 ovarian)	TGI (OVCAR-3 ovarian)	GI50 (OVCAR-5 ovarian)	TGI (OVCAR-5 ovarian)	GI50 (SNB-75 CNS)	TGI (SNB-75 CNS)	TGI (SF-295 CNS)
CN1C(=O)N(C)C2(CCN(CC(CC3OCCO3)c3ccc(F)cc3)CC2)C1=O (configuration not stated)		> 100 µM		> 100 µM		> 100 µM		> 100 µM		> 100 µM		> 100 µM		> 100 µM		> 100 µM	> 100 µM
O=C1CC(c2ccc(Cl)cc2)C2(C(=O)NC(=S)NC2=O)C(c2ccc(Cl)cc2)C1 (configuration not stated)		> 100 µM		74.6 µM		> 100 µM		> 100 µM		39 µM		33.9 µM		47.7 µM		30.2 µM	35.9 µM
CC[C@H](C)[C@H](NC(=O)N(CCC#N)CCN(CCN(C(=O)N[C@@H](Cc1ccccc1)C(=O)OC)c1ccccc1)C(=O)N[C@H](C(=O)OC)C(C)C)C(=O)OC		26.7 µM		35.3 µM		41.2 µM		37.4 µM		40.1 µM		39.7 µM		57.3 µM		43.1 µM	37.9 µM
COC(=O)[C@H](CNC(=O)/C=C/c1ccc(OC(C)=O)c(OC(C)=O)c1)NC(=O)/C=C/c1ccc(OC(C)=O)c(OC(C)=O)c1		> 100 µM		> 100 µM		> 100 µM		> 100 µM		> 100 µM		> 100 µM		> 100 µM		> 100 µM	
C/C=C1\CC(C(=O)OCC)CCCCCCC1=O (configuration not stated)		> 100 µM		> 100 µM		> 100 µM		> 100 µM		> 100 µM				> 100 µM		> 100 µM	> 100 µM
CC(=N/NC(=S)N1CCCCCC1)/C(C)=N\NC(=S)N1CCCCCC1		9.67 µM		12.4 µM		8.66 µM				12.6 µM		14.3 µM		> 23.5 µM		10.9 µM	12.5 µM
Cc1sc2c(c1C)C(=O)c1cccn1-2		> 100 µM		> 100 µM		> 100 µM		> 100 µM				> 100 µM		> 100 µM		> 100 µM	> 100 µM
CCOC(=O)COc1cc(-c2ccccc2F)nc2cc3c(cc12)OCO3		> 100 µM		> 100 µM		> 100 µM		> 100 µM		> 100 µM				> 100 µM		> 100 µM	> 100 µM
COc1cc(C2CC(C)(N3CCOCC3)Oc3cc4c(cc32)OCO4)cc(OC)c1OC (configuration not stated)		> 100 µM		72.1 µM		> 33.1 µM		> 100 µM		> 100 µM		> 100 µM		> 100 µM			
C=C1CC[C@@]2(C)[C@@H]([C@@H]1C)[C@H]1CC[C@@H]3[C@@]4(C)CC[C@H](O)C(C)(C)[C@@H]4CC[C@@]3(C)[C@]1(C)C[C@@H]2O		4.44 µM		5.59 µM		17.5 µM		3.47 µM		5.64 µM		16.1 µM		17.7 µM			12.2 µM
O=[N+]([O-])c1ccc(CSc2nn(Cc3ccc([N+](=O)[O-])cc3)cc3ncnc2-3)cc1		> 100 µM		> 100 µM				> 100 µM		> 100 µM		> 100 µM		> 100 µM		> 100 µM	> 100 µM
COc1ccc2[nH]c3cc4c(=O)c5cc(OC)ccc5[nH]c4cc3c(=O)c2c1		> 100 µM		> 100 µM		> 100 µM				> 100 µM		> 100 µM		> 100 µM		67.5 µM	> 100 µM
Cc1nc2cn3c(c2c(=O)[nH]1)CCCCC3		> 100 µM		> 100 µM		> 100 µM		> 100 µM		> 100 µM						> 100 µM	> 100 µM
C=CCn1c(-c2cc(C(C)(C)C)c(O)c(C(C)(C)C)c2)cs/c1=N\C(P(=O)(O)O)P(=O)(O)O		> 100 µM		> 100 µM		> 100 µM				> 100 µM		> 100 µM		> 100 µM		> 100 µM	> 100 µM
Cc1ccc(C2(O)c3ccccc3C(=O)N(C)C2(O)c2ccc(C)cc2)cc1 (configuration not stated)				> 100 µM		> 100 µM		> 100 µM		> 100 µM		> 100 µM		> 100 µM			> 100 µM
CCOC(=O)NN(C(=O)OCC)c1ccc(N=Nc2ccc(OC)cc2)n1C		58.2 µM						41.5 µM		> 100 µM		53.2 µM		> 100 µM		46 µM	> 100 µM
